We go through one compound from US20120270237A9, “METHODS FOR THE IDENTIFICATION OF KINASE INTERACTING MOLECULES AND FOR THE PURIFICATION OF KINASE PROTEINS” (Cellzone AG, priority 2009, published 2012).

Holding throughout (experiment): Kinobeads competition binding, HL60 cell lysate
Holding throughout (design): endogenous in cells
Holding throughout (settings): 10 μM free compound

The target in one assay is Erk2 (Homo sapiens, UniProt P28482). A digest of the protocol: (§1)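 Target occupancy is inferred from reduced capture of each kinase on compound-coupled beads after lysate pre-treatment with 10 μM free compound, relative to a DMSO lysate. Quantitation used isobaric iTRAQ tags and tandem MS.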
In the next assay the target is T1, TBK1 (Homo sapiens, UniProt Q9UHD2).
T1 sequence (Q9UHD2 1-729): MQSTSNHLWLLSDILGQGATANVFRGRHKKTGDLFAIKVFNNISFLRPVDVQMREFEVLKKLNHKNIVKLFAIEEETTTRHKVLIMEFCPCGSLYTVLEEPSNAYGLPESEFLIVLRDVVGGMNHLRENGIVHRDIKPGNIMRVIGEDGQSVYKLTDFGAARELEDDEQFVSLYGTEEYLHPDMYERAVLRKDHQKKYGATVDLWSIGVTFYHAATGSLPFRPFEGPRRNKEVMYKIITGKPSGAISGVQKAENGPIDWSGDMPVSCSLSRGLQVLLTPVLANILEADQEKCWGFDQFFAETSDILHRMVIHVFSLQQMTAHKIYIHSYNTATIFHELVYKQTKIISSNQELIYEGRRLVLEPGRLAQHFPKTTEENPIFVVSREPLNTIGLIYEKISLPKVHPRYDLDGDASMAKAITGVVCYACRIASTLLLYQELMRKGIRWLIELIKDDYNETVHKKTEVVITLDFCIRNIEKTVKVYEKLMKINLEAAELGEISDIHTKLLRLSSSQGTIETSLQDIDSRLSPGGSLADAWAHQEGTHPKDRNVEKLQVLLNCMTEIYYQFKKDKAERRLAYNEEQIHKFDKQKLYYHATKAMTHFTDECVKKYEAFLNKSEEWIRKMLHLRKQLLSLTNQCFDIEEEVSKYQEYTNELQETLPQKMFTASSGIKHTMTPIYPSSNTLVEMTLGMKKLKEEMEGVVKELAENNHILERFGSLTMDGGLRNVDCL
A digest of the protocol: as §1

Another assay concerns the target CK2a2 (Homo sapiens, UniProt P19784). A digest of the protocol: as §1

SMILES strings stand for the structures.

By inhibition is commonly meant the percentage by which the read-out fell short of the control. Low values mean a response near the control, high ones a response far below the control. On to `CS(=O)(=O)Nc1ccccc1Nc1nc(Nc2cccc(OCCN)c2)ncc1Cl` [CZC31326, N-(2-(2-(3-(2-aminoethoxy)phenylamino)-5-chloropyrimidin-4-ylamino)phenyl)methanesulfonamide], for which the inhibition at 10 µM was 75.8% on Erk2, 94.8% on TBK1 and 97.7% at CK2a2.
